Data: US10125129B2 (priority 2016, dated 2018)
Like-named read-outs stand apart in the source and are kept apart here.

Assays:
μ opioid receptor (MOR) = molecular target: T1, μ opioid receptor (MOR) (Homo sapiens, UniProt P35372); assay: cell-based; assay type: cell-based
T1 construct: expressed in transfected cells

κ opioid receptor (KOR) = molecular target: T2, κ opioid receptor (KOR) (Homo sapiens, UniProt P41145); assay: cell-based; assay type: cell-based
T2 construct: expressed in transfected cells
T2 sequence (P41145 whole entry): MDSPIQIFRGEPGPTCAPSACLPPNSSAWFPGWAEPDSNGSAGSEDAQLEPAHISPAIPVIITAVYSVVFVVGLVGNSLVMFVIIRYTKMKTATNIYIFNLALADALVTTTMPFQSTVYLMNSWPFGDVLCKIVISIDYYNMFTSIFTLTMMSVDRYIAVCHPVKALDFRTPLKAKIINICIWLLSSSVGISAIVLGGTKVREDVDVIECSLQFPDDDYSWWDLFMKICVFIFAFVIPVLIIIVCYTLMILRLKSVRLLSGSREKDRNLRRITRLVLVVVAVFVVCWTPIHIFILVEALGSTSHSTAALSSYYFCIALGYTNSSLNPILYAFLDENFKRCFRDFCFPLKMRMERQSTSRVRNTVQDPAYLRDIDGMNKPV

T1 sequence (P35372 whole entry): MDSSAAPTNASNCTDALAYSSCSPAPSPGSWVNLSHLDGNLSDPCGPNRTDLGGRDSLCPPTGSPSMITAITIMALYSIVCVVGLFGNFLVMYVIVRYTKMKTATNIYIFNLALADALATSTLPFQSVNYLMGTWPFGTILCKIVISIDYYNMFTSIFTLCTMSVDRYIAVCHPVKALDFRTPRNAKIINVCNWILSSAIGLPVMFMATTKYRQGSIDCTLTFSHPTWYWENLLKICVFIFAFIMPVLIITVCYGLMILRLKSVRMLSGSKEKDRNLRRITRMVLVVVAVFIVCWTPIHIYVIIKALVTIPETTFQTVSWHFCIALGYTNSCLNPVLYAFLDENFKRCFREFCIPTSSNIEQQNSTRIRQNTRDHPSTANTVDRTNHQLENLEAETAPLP

SMILES	EC50 (μ opioid receptor (MOR); Series 2 EC50)	EC50 (μ opioid receptor (MOR); EC50)	also measured
COC(=O)[C@@H]1C[C@H](NC(=O)c2ccccc2)C(=O)[C@H]2[C@@]1(C)CC[C@H]1C(=O)O[C@H](c3ccoc3)C[C@]21C [Compound 3, reference compound]	–	–	Selectivity μ/κ (μ opioid receptor (MOR)): >3 000; EC50 (μ opioid receptor (MOR); EC50 ± SEM μ): 3 ± 0.4 nM; EC50 (κ opioid receptor (KOR)): > 10000 nM
COC(=O)[C@@H]1C=C(OC(=O)c2ccccc2C)C(=O)[C@H]2[C@@]1(C)CC[C@H]1C(=O)O[C@H](c3ccoc3)C[C@]21C [Series 2 Entry 11, (2S,4aR,6aR,7R,10aR,10bR)-Methyl 2-(furan-3-yl)-6a,10b-dimethyl-9-((2-methylbenzoyl)oxy)-4,10-dioxo-2,4,4a,5,6,6a,7,10,10a,10b-decahydro-1H-benzo[f]isochromene-7-carboxylate]	240 ± 40 nM	–	–
COC(=O)[C@@H]1C=C(OC(=O)c2cccc(C)c2)C(=O)[C@H]2[C@@]1(C)CC[C@H]1C(=O)O[C@H](c3ccoc3)C[C@]21C [Series 2 Entry 12, (2S,4aR,6aR,7R,10aR,10bR)-Methyl 2-(furan-3-yl)-6a,10b-dimethyl-9-((3-methylbenzoyl)oxy)-4,10-dioxo-2,4,4a,5,6,6a,7,10,10a,10b-decahydro-1H-benzo[f]isochromene-7-carboxylate]	160 ± 30 nM	–	–
COC(=O)[C@@H]1C=C(OC(=O)c2ccc(C)cc2)C(=O)[C@H]2[C@@]1(C)CC[C@H]1C(=O)O[C@H](c3ccoc3)C[C@]21C [Series 2 Entry 13, (2S,4aR,6aR,7R,10aR,10bR)-Methyl 2-(furan-3-yl)-6a,10b-dimethyl-9-((4-methylbenzoyl)oxy)-4,10-dioxo-2,4,4a,5,6a,7,10,10a,10b-decahydro-1H-benzo[f]isochromene-7-carboxylate]	–	–	EC50 (μ opioid receptor (MOR); read-out: Series 2 EC50): 21.8 ± 0.3 nM
COC(=O)[C@@H]1C=C(OC(=O)c2ccccc2OC)C(=O)[C@H]2[C@@]1(C)CC[C@H]1C(=O)O[C@H](c3ccoc3)C[C@]21C [Series 2 Entry 14, (2S,4aR,6aR,7R,10aR,10bR)-Methyl 2-(furan-3-yl)-9-((2-methoxybenzoyl)oxy)-6a,10b-dimethyl-4,10-dioxo-2,4,4a,5,6,6a,7,10,10a,10b-decahydro-1H-benzo[f]isochromene-7-carboxylate]	2000 ± 1000 nM	–	–
COC(=O)[C@@H]1C=C(OC(=O)c2cccc(OC)c2)C(=O)[C@H]2[C@@]1(C)CC[C@H]1C(=O)O[C@H](c3ccoc3)C[C@]21C [Series 2 Entry 15, (2S,4aR,6aR,7R,10aR,10bR)-Methyl 2-(furan-3-yl)-9-((3-methoxybenzoyl)oxy)-6a,10b-dimethyl-4,10-dioxo-2,4,4a,5,6,6a,7,10,10a,10b-decahydro-1H-benzo[f]isochromene-7-carboxylate]	–	–	EC50 (μ opioid receptor (MOR); read-out: Series 2 EC50): 11 ± 2 nM
COC(=O)[C@@H]1C=C(OC(=O)c2ccc(OC)cc2)C(=O)[C@H]2[C@@]1(C)CC[C@H]1C(=O)O[C@H](c3ccoc3)C[C@]21C [Series 2 Entry 16, (2S,4aR,6aR,7R,10aR,10bR)-Methyl 2-(furan-3-yl)-9-((4-methoxybenzoyl)oxy)-6a,10b-dimethyl-4,10-dioxo-2,4,4a,5,6,6a,7,10,10a,10b-decahydro-1H-benzo[f]isochromene-7-carboxylate]	–	–	EC50 (μ opioid receptor (MOR); read-out: Series 2 EC50): 8 ± 3 nM
COC(=O)[C@@H]1C=C(OC(=O)c2ccccn2)C(=O)[C@H]2[C@@]1(C)CC[C@H]1C(=O)O[C@H](c3ccoc3)C[C@]21C [Series 2 Entry 17, (2S,4aR,6aR,7R,10aR,10bR)-2-(Furan-3-yl)-7-(methoxycarbonyl)-6a,10b-dimethyl-4,10-dioxo-2,4,4a,5,6,6a,7,10,10bdecahydro-1H-benzo[f]isochromen-9-yl picolinate]	410 ± 50 nM	–	–
COC(=O)[C@@H]1C=C(OC(=O)c2cccnc2)C(=O)[C@H]2[C@@]1(C)CC[C@H]1C(=O)O[C@H](c3ccoc3)C[C@]21C [Series 2 Entry 18, (2S,4aR,6aR,7R,10aR,10bR)-2-(Furan-3-yl)-7-(methoxycarbonyl)-6a,10b-dimethyl-4,10-dioxo-2,4,4a,5,6,6a,7,10,10a,10b-decahydro-H-benzo[f]isochromen-9-yl nicotinate]	3.3 ± 0.8 nM	–	–
COC(=O)[C@@H]1C=C(OC(=O)c2ccncc2)C(=O)[C@H]2[C@@]1(C)CC[C@H]1C(=O)O[C@H](c3ccoc3)C[C@]21C [Series 2 Entry 19, (2S,4aR,6aR,7R,10aR,10bR)-2-(Furan-3-yl)-7-(methoxycarbonyl)-6a,10b-dimethyl-4,10-dioxo-2,4,4a,5,6,6a,7,10,10a,10bdecahydro-1H-benzo[f]isochromen-9-yl isonicotinate]	6 ± 1 nM	–	–
COC(=O)[C@@H]1C=C(OC(=O)c2cccs2)C(=O)[C@H]2[C@@]1(C)CC[C@H]1C(=O)O[C@H](c3ccoc3)C[C@]21C [Series 2 Entry 20, (2S,4aR,6aR,7R,6aR,7R,10aR,10bR)-Methyl 2-(furan-3-yl)-6a,10bdimethyl-4,10-dioxo-9-((thiophene-2-carbonyl)oxy)-2,4,4a,5,6,6a,7,10,10a,10b-decahydro-1H-benzo[f]isochromene-7-carboxylate]	1.4 ± 0.8 nM	–	–
COC(=O)[C@@H]1C=C(OC(=O)c2ccsc2)C(=O)[C@H]2[C@@]1(C)CC[C@H]1C(=O)O[C@H](c3ccoc3)C[C@]21C [Series 2 Entry 21, (2S,4aR,6aR,7R,10aR,10bR)-Methyl 2-(furan-3-yl)-6a,10bdimethyl-4,10-dioxo-9-((thiophene-3-carbonyl)oxy)-2,4,4a,5,6,6a,7,10,10a,10b-decahydro-1H-benzo[f]isochromene-7-carboxylate]	1.3 ± 0.9 nM	–	–
COC(=O)[C@@H]1C=C(OC(=O)c2cc3ccccc3o2)C(=O)[C@H]2[C@@]1(C)CC[C@H]1C(=O)O[C@H](c3ccoc3)C[C@]21C [Series 2 Entry 22, (2S,4aR,6aR,7R,10aR,10bR)-Methyl 9-((benzofuran-2-carbonyl)oxy)-2-(furan-3-yl)-6a,10-dimethyl-4,10-dioxo-2,4,4a,5,6,6a,7,10,10a,10bdecahydro-1H-benzo[f]isochromene-7-carboxylate]	31 ± 9 nM	–	–
COC(=O)[C@@H]1C=C(OC(=O)Cc2ccccc2)C(=O)[C@H]2[C@@]1(C)CC[C@H]1C(=O)O[C@H](c3ccoc3)C[C@]21C [Table 3 Entry 4, (2S,4aR,6aR,7R,10aR,10bR)-Methyl 2-(furan-3-yl)-6a,10bdimethyl-4,10-dioxo-9-(2-phenylacetoxy)-2,4,4a,5,6,6a,7,10a,10b-decahydro-1Hbenzo[f]isochromene-7-carboxylate]	–	130 ± 50 nM	–
COC(=O)[C@@H]1C=C(OC(=O)CCc2ccccc2)C(=O)[C@H]2[C@@]1(C)CC[C@H]1C(=O)O[C@H](c3ccoc3)C[C@]21C [Table 3 Entry 5, (2S,4aR,6aR,7R,10 aR,10bR)-Methyl 2-(furan-3-yl)-6a,10bdimethyl-4,10-dioxo-9-((3-phenylpropanoyl)oxy)-2,4,4a,5,6,6a,7,10,10a,10b-decahydro-1H-benzo[f]isochromene-7-carboxylate]	–	500 ± 200 nM	–
COC(=O)[C@@H]1C=C(OC(=O)/C=C/c2ccccc2)C(=O)[C@H]2[C@@]1(C)CC[C@H]1C(=O)O[C@H](c3ccoc3)C[C@]21C [Table 3 Entry 6, (2S,4aR,6aR,7R,10aR,10bR)-Methyl 9-(cinnamoyloxy)-2-(furan-3-yl)-6a,10b-dimethyl-4,10-dioxo-2,4,4a,5,6,6a,7,10,10a,10b-decahydro-1Hbenzo[f]isochromene-7-carboxylate]	–	30 ± 10 nM	–
COC(=O)[C@@H]1C=C(OC(=O)c2cscn2)C(=O)[C@H]2[C@@]1(C)CC[C@H]1C(=O)O[C@H](c3ccoc3)C[C@]21C [Table 3 Entry 7, (2S,4aR,6aR,7R,10aR,10bR)-2-(Furan-3-yl)-7-(methoxycarbonyl)-6a,10b-dimethyl-4,10-dioxo-2,4,4a,5,6,6a,7,10,10a,10b-decahydro-1H-benzo[f]isochromen-9-yl thiazole-4-carboxylate]	–	8 ± 3 nM	–
COC(=O)[C@@H]1C=C(OC(=O)c2cncs2)C(=O)[C@H]2[C@@]1(C)CC[C@H]1C(=O)O[C@H](c3ccoc3)C[C@]21C [Table 3 Entry 8, (2S,4aR,6aR,7R,10aR,10bR)-2-(Furan-3-yl)-7-(methoxycarbonyl)-6a,10b-dimethyl-4,10-dioxo-2,4,4a,5,6,6a,7,10,10a,10b-decahydro-1H-benzo[f]isochromen-9-yl thiazole-5-carboxylate]	–	> 10000 nM	–
COC(=O)[C@@H]1C=C(OC(=O)c2cocn2)C(=O)[C@H]2[C@@]1(C)CC[C@H]1C(=O)O[C@H](c3ccoc3)C[C@]21C [Table 3 Entry 9, (2S,4aR,6aR,7R,10aR,10bR)-2-(Furan-3-yl)-7-(methoxycarbonyl)-6a,10b-dimethyl-4,10-dioxo-2,4,4a,5,6,6a,10,10a,10b-decahydro-1H-benzo[f]isochromen-9-yl oxazole-4-carboxylate]	–	30 ± 2 nM	–
COC(=O)[C@@H]1C=C(OC(=O)c2cnco2)C(=O)[C@H]2[C@@]1(C)CC[C@H]1C(=O)O[C@H](c3ccoc3)C[C@]21C [Table 3 Entry 10, (2S,4aR,6aR,7R,10aR,10bR)-2-(Furan-3-yl)-7-(methoxycarbonyl)-6a,10b-dimethyl-4,10-dioxo-2,4,4a,5,6,6a,7,10,10a,10b-decahydro-1H-benzo[f]isochromen-9-yl oxazole-5-carboxylate]	–	> 10000 nM	–
COC(=O)[C@@H]1C=C(OC(=O)c2cncnc2)C(=O)[C@H]2[C@@]1(C)CC[C@H]1C(=O)O[C@H](c3ccoc3)C[C@]21C [Table 3 Entry 11, (2S,4aR,6aR,7R,10aR,10bR)-2-(Furan-3-yl)-7-(methoxycarbonyl)-6a,10b-dimethyl-4,10-dioxo-2,4,4a,5,6,6a,7,10,10a,10b-decahydro-1H-benzo[f]isochromen-9-yl pyrimidine-5-carboxylate]	–	6 ± 1 nM	–
COC(=O)[C@@H]1C=C(OC(=O)c2cc3ccccc3s2)C(=O)[C@H]2[C@@]1(C)CC[C@H]1C(=O)O[C@H](c3ccoc3)C[C@]21C [Table 3 Entry 13]	–	6 ± 1 nM	–
